Read-outs that look alike come from different tables or passages of the source.
Test system: Influenza A/WSN/33/1
Type: cell-based

CCOC(=O)C1=C[C@@H](OC(CC)CC)[C@H](NC(C)=O)[C@@H](N)C1 [oseltamivir, (3R,4R,5S)-4-acetylamino-5-amino-3(1-ethylpropoxy)-1-cyclohexene-1-carboxylic acid ethyl ester]
reduced influenza titers compared to untreated (air) control (1 nM oseltamivir in basolateral media): 5 fold

NC(=O)c1ncn([C@@H]2O[C@H](CO)[C@@H](O)[C@H]2O)n1 [ribavirin]
reduced influenza titers compared to untreated (air) control (10 nM ribavirin in basolateral media, p>0.05): 6.3 fold

CC(N)C12CC3CC(CC(C3)C1)C2 (stereo not drawn) [rimantadine]
reduced influenza titers compared to untreated (air) control (1 nM rimantadine in basolateral media, p>0.05): 9.6 fold | reduced viral titers compared to the untreated control (10 nM rimantadine in basolateral media, p<0.001): 185 fold

CC(=O)NC1[C@@H](NC(=N)N)C=C(C(=O)O)O[C@H]1[C@H](O)[C@H](O)CO (stereo partly drawn) [zanamivir, 5-(acetylamino)-4-[(aminoiminomethyl)-amino]-2,6-anhydro-3,4,5-trideoxy-D-glycero-D-galacto-non-2-enoic acid]
reduced viral titers compared to the untreated control (0.1 nM zanamivir alone): 40 fold | viral infection, dose response ([…], p<0.01 vs untreated (Air) control): reduced viral infection in a dose responsive manner
